Results published in US10800741B2 (ANCUREALL PHARMACEUTICAL (SHANGHAI) CO., LTD., priority 2017, dated 2020).

Columns and labels:
Assay type in all cases: cell-based, Human
Hep3B2 (FGFR3/4+++) = test: In vitro growth inhibition of Hep3B2 tumor cells (MTT/CCK8); settings: Homo sapiens, Hep3B; in vitro growth inhibition (or induction of apoptosis), cells cultured 3 to 5 days, MTT (CCK8); read-out: IC50 Hep3B2 (FGFR3/4+++)
KCL-22 (BCR-ABL) = test: In vitro growth inhibition of KCL-22 tumor cells (MTT/CCK8); settings: Homo sapiens, KCL-22; in vitro growth inhibition (or induction of apoptosis), cells cultured 3 to 5 days, MTT (CCK8); read-out: IC50 KCL-22 (BCR-ABL)
Karpas 299 (NPM-ALK) = test: In vitro growth inhibition of Karpas 299 tumor cells (MTT/CCK8); settings: Homo sapiens, KARPAS-299; in vitro growth inhibition (or induction of apoptosis), cells cultured 3 to 5 days, MTT (CCK8); read-out: IC50 Karpas 299 (NPM-ALK)
H1703 (PDGFRa amp) = test: In vitro growth inhibition of H1703 tumor cells (MTT/CCK8); settings: Homo sapiens, NCI-H1703; in vitro growth inhibition (or induction of apoptosis), cells cultured 3 to 5 days, MTT (CCK8); read-out: IC50 H1703 (PDGFRa amp)
MOLM-13 (FLT3-ITD) = test: In vitro growth inhibition of MOLM-13 tumor cells (MTT/CCK8); settings: Homo sapiens, MOLM-13; in vitro growth inhibition (or induction of apoptosis), cells cultured 3 to 5 days, MTT (CCK8); read-out: IC50 MOLM-13 (FLT3-ITD)
Kasumi-1 (KIT N822K) = test: In vitro growth inhibition of Kasumi-1 tumor cells (MTT/CCK8); settings: Homo sapiens, Kasumi 1; in vitro growth inhibition (or induction of apoptosis), cells cultured 3 to 5 days, MTT (CCK8); read-out: IC50 Kasumi-1 (KIT N822K)
KATO III (FGFR2 amp) = test: In vitro growth inhibition of KATO III tumor cells (MTT/CCK8); settings: Homo sapiens, KATO III; in vitro growth inhibition (or induction of apoptosis), cells cultured 3 to 5 days, MTT (CCK8); read-out: IC50 KATO III (FGFR2 amp)
H1581 (FGFR1 amp) = test: In vitro growth inhibition of H1581 tumor cells (MTT/CCK8); settings: Homo sapiens, NCI-H1581; in vitro growth inhibition (or induction of apoptosis), cells cultured 3 to 5 days, MTT (CCK8); read-out: IC50 H1581 (FGFR1 amp)

| SMILES | IC50 (Hep3B2 (FGFR3/4+++)) [nM] | IC50 (KCL-22 (BCR-ABL)) [nM] | IC50 (Karpas 299 (NPM-ALK)) [nM] | IC50 (H1703 (PDGFRa amp)) [nM] | IC50 (MOLM-13 (FLT3-ITD)) [nM] | IC50 (Kasumi-1 (KIT N822K)) [nM] | IC50 (KATO III (FGFR2 amp)) [nM] | IC50 (H1581 (FGFR1 amp)) [nM] |
| --- | --- | --- | --- | --- | --- | --- | --- | --- |
| CNC(=O)c1cc2c(Oc3ccc(NC(=O)Nc4cc(C(C)(C)C)n[nH]4)c(Cl)c3)ccnc2cc1OC [Compound 45, 4-{4-[3-(5-tert-butyl-2H-pyrazol-3-yl)-ureido]-3-chloro-phenoxy}-7-methoxyquinolin-6-carboxylic acid methylamide] | 39.6 | 21.8 | 413 | 25.7 | 6.32 | 34.2 | 1.46 | 16.5 |
| CNC(=O)c1cc2c(Oc3ccc(NC(=O)Nc4cc(C(C)(C)C)nn4C)c(Cl)c3)ccnc2cc1OC [Compound 46, 4-{4-[3-(5-tert-butyl-2-methyl-2H-pyrazol-3-yl)-ureido]-3-chloro-phenoxy}-7-methoxy quinolin-6-carboxylic acid methylamide] | 39.1 | 8.17 | 384 | 8.8 | 6.98 | 14.4 | 0.98 | 3.06 |
| CCn1nc(C(C)(C)C)cc1NC(=O)Nc1ccc(Oc2ccnc3cc(OC)c(C(=O)NC)cc23)cc1Cl [Compound 47] | 39.3 | 9.38 | 466 | 14.7 | 7.42 | 15.9 | 0.73 | 4.93 |
| CNC(=O)c1cc2c(Oc3ccc(NC(=O)Nc4cc(C(C)(C)C)nn4C4CCCC4)c(Cl)c3)ccnc2cc1OC [Compound 48, 4-{4-[3-(5-tert-butyl-2-cyclopentyl-2H-pyrazol-3-yl)-ureido]-3-chloro-phenoxy}-7-methoxyquinolin-6-carboxylic acid methylamide] | 44.1 | 22.3 | 502 | 25.9 | 11.6 | 35.7 | 1.36 | 11.7 |
| CNC(=O)c1cc2c(Oc3ccc(NC(=O)Nc4cc(C(C)(C)C)n[nH]4)c(C)c3)ccnc2cc1OC [Compound 49, 4-{4-[3-(5-tert-butyl-2H-pyrazol-3-yl)-ureido]-3-methyl-phenoxy}-7-methoxyquinolin-6-carboxylate acid methylamide] | 93.1 | 31.2 | > 1000 | 15.4 | 18.1 | 100 | 2.93 | 63.1 |
| CNC(=O)c1cc2c(Oc3ccc(NC(=O)Nc4cc(C(C)(C)C)nn4C)c(C)c3)ccnc2cc1OC [Compound 50, 4-{4-[3-(5-tert-butyl-2-methyl-2H-pyrazol-3-yl)-ureido]-3-methyl-phenoxy}-7-methoxy quinolin-6-carboxylate acid methylamide] | 96.6 | 90 | 795 | 14.5 | 16.2 | 65.6 | 0.31 | 59.5 |
| CNC(=O)c1cc2c(Oc3ccc(NC(=O)Nc4cc(C(C)(C)C)n[nH]4)c(C(F)(F)F)c3)ccnc2cc1OC [Compound 51, 4-{4-[3-(5-tert-butyl-2H-pyrazol-3-yl)-ureido]-3-trifluoromethyl-phenoxy}-7-methoxyquinolin-6-carboxylic acid methylamide] | 88 | 13 | 493 | 48.4 | 142 | 12.7 | 1.14 | 51.4 |
| CNC(=O)c1cc2c(Oc3ccc(NC(=O)Nc4cc(C(C)(C)C)nn4C)cc3C)ccnc2cc1OC [Compound 53, 4-{4-[3-(5-tert-butyl-2-methyl-2H-pyrazol-3-yl)-ureido]-2-methyl-phenoxy}-7-methoxy quinolin-6-carboxylate acid methylamide] | 344 | 28.6 | 302 | 64 | 1.12 | 17.7 | 6.81 | 218 |
